Test results published in patent US6291515A, “Use of efomycins” (Bayer Aktiengesellschaft, priority 1996, dated 2001).

Legend:
Type in all cases: cell-based
[1] = tested on: adhesion of PMNL to albumin-coated plastic surfaces; experiment: Adhesion of PMNL to albumin-coated plastic surfaces; conditions: test described in EP 0 461 499 A2 (Use Example 1)
Source text: The adhesion test to albumin-coated plastic surfaces is described in detail, inter alia, in EP 0 461 499 A2 (Use Example 1).

[2] = tested on: adhesion of human PMNL to hypoxia-stimulated pig aorta; experiment: Inhibition of PMNL adhesion to hypoxia-stimulated pig aortas, human PMNL; conditions: proportion of adherent PMNL vs control (=100), 90-minute coincubation at 37° C., MPO readout
Method: (§1) Freshly isolated pig aortas were brought into the laboratory from the local slaughterhouse in oxygen-aerated, phosphate-buffered saline solution (PBS). Freshly obtained pig or human blood was taken for the preparation of polymorphonuclear neutrophilic granulocytes (PMNL). The aortas were stimulated by placing them for 30 minutes in PBS which was aerated with nitrogen (hypoxia stimulus). The aorta were then fixed between a Teflon block (below) and a specially made steel plate (above) with drilled wells (similar to a microtiter plate). PMNL and the potential adhesion inhibitors were added to the luminal side, i.e. to the stimulated endothelial cell layer, in cell media (M199, Gibco). After a 90-minute coincubation at 37° C. in an incubator, the wells were washed. The remaining adherent PMNL were lysed. The activity of the PMNL-specific myeloperoxidase (MPO) in the lysate was determined photometrically and compared to the untreated control (only solvent). […] The proportion of the adherent PMNL in comparison with the control is indicated.
(§2) Inhibition of the adhesion of pig PMNL or human PMNL to hypoxia-stimulated pig aorta by efomycins

[3] = tested on: cultured endothelial cells; experiment: MTT test for cytotoxicity on endothelial cells; conditions: at efficacious concentrations
[4] = tested on: adhesion of pig PMNL to hypoxia-stimulated pig aorta; experiment: Inhibition of PMNL adhesion to hypoxia-stimulated pig aortas, pig PMNL; conditions: for % adherent PMNL, Pig PMNL: hypoxia-stimulated pig aorta, proportion of adherent PMNL vs control (=100), 90-minute coincubation at 37° C., MPO readout
Method: as §1, §2

CC[C@@H](/C=C/C(=O)[C@@H](C)[C@H](O)[C@H](C)[C@H]1OC(=O)/C=C/C=C/[C@H](C)[C@@H]([C@@H](C)[C@@H](O)[C@H](C)C(=O)/C=C/[C@H](CC)[C@@H](C)O)OC(=O)/C=C/C=C/[C@@H]1C)[C@@H](C)O [Ex. No. 1]
inhibition of adhesion of PMNL to albumin-coated plastic surfaces [1]: does not inhibit | % adherent PMNL, Human PMNL [2]: 52 ± 2% | cytotoxicity against endothelial cells in the MTT test [3]: no cytotoxicity | activity in the test model described (PMNL adhesion to hypoxia-stimulated pig aorta), in words ([4]; PMNL species not given): active | % adherent PMNL, Pig PMNL [4]: 33 ± 23%

CC[C@@H](/C=C/C(=O)[C@@H](C)[C@H](OC(C)=O)[C@H](C)[C@H]1OC(=O)/C=C/C=C/[C@H](C)[C@@H]([C@@H](C)[C@@H](OC(C)=O)[C@H](C)C(=O)/C=C/[C@H](CC)[C@@H](C)OC(C)=O)OC(=O)/C=C/C=C/[C@@H]1C)[C@@H](C)OC(C)=O [Ex. No. 2]
% adherent PMNL, Human PMNL [2]: 90 ± 5% | % adherent PMNL, Pig PMNL [4]: 85 ± 11%
